Results as given in patent US20140227318A1, “SLEEP QUALITY IMPROVING AGENT” (LION CORPORATION, priority 2011, published 2014).

Legend:
male C57BL/6 mice = assay: Measurement of amount of activity of mice (sleep inducing effect); type: in vivo, mouse; settings: oral; for CUMULATIVE AMOUNT OF ACTIVITY 6 HOURS AFTER ADMINISTRATION: n=8; for sleep inducing effect: conclusion from amount of activity
Protocol: To check the sleep inducing effect of the S-adenosylmethionine-containing yeast, the following test was performed using respective samples shown in TABLE 1.
The S-adenosylmethionine-containing yeast (the sample in Example 1) used was “AMee (trade name)” manufactured by IWATA CHEMICAL CO., LTD. “Nissin Super Camellia dry yeast (trade name)” manufactured by Nisshin Foods Inc. was used as a yeast containing no adenosylmethionine (the sample in Comparative Example 2). S-adenosylmethionine disulfate tosylate (the sample in Comparative Example 3) used was S-adenosylmethionine disulfate tosylate manufactured by CHEMaster. The sample in Comparative Example 2 and the sample in Comparative Example 3 were mixed and used as a mixture of the yeast containing no S-adenosylmethionine and S-adenosylmethionine disulfate tosylate (the sample in Comparative Example 4). S-adenosylmethionine chloride used in Comparative Example 5 (the sample in Comparative Example 5) was a reagent from
SIGMA. In each of Example 1 and Comparative Examples 2, 3, 4, and 5, a suspension of the sample in a 0.5% by mass aqueous methyl cellulose solution was prepared and used as a sample solution for an experiment. A 0.5% by mass aqueous methyl cellulose solution (the sample in Comparative Example 1) was used as a control solution.
When a sample has the function of inducing sleep, the amount of activity always decreases after administration of the sample. Therefore, the sleep inducing effect of each sample was evaluated by determining whether or not the administration of the sample solution to a mouse caused a reduction in the amount of activity.
8-Week old or 9-week old male C57BL/6 mice were purchased from Japan SLC, Inc. and acclimatized for 3 to 6 days. The amount of activity during acclimatization was used to divide the mice into administration groups. Immediately before the onset of the dark period, a sample solution or the control solution was orally administered in an amount of 10 mL/kg per body weight, and the amount of activity was measured for 24 hours after administration. Each administration group included 8 mice (n=8).
The amount of activity was measured under the following conditions. The mice were raised in individual cages, and an infrared camera was disposed above each cage. The imaging range of the infrared camera was divided into 64 sections, and the number of occurrences that the mouse crossed a section was measured. The number of occurrences was collected every 30 minutes.
In FIG. 2, “**” represents that a significant difference was found at p<0.01.

[1] = intravenous injection or intramuscular injection; cited from earlier work

Molecule	CUMULATIVE AMOUNT OF ACTIVITY 6 HOURS AFTER ADMINISTRATION (male C57BL/6 mice; 150 mg/kg (137 mg/kg in terms of S-adenosylmethionine))	sleep inducing effect (male C57BL/6 mice)	CUMULATIVE AMOUNT OF ACTIVITY 6 HOURS AFTER ADMINISTRATION (male C57BL/6 mice; 293 mg/kg (150 mg/kg in terms of S-adenosylmethionine))	influence on sleep onset latency [1]	length of NREM sleep (stage 4) [1]
C[S+](CC[C@H](N)C(=O)O)C[C@H]1O[C@@H](n2cnc3c(N)ncnc32)[C@H](O)[C@@H]1O.[Cl-] (stereo partly drawn) [Comparative Example 5, S-adenosylmethionine chloride]	7068 NUMBER OF OCCURRENCES/6 HOURS	no sleep inducing effect	–	–	–
S-adenosylmethionine disulfate tosylate [Comparative Example 3]	–	no sleep inducing effect	8618 NUMBER OF OCCURRENCES/6 HOURS	no influence	extended
